Assay results taken from the supplement of paper PMC10307832.

Assays:
Assay in all cases: relative viability (nuclei count vs DMSO), 5 days (fraction); higher = more cells survive
OSI-027 + Crizotinib = compound: COc1cccc2cc(-c3nc([C@H]4CC[C@H](C(=O)O)CC4)n4ncnc(N)c34)[nH]c12 [OSI-027] + C[C@@H](Oc1cc(-c2cnn(C3CCNCC3)c2)cnc1N)c1c(Cl)ccc(F)c1Cl [Crizotinib] (partner 1 µM)
In short: (§1)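 Relative viability equals treated-well nuclei counts divided by vehicle-well nuclei counts. Counts came from 4× images of lung cancer cell lines grown in 1536-well plates for 5 days after pin-tool dosing on the day after seeding. Dosing used one drug alone or a fixed anchor-drug dose plus five library-drug doses (not always all listed) in √10 steps, and values are medians of duplicate plates.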

OSI-027 + Linsitinib = compound: COc1cccc2cc(-c3nc([C@H]4CC[C@H](C(=O)O)CC4)n4ncnc(N)c34)[nH]c12 [OSI-027] + C[C@]1(O)C[C@@H](c2nc(-c3ccc4ccc(-c5ccccc5)nc4c3)c3c(N)nccn32)C1 [Linsitinib] (partner 1 µM)
In short: as §1

Alpelisib + Tozasertib = compound: Cc1nc(NC(=O)N2CCC[C@H]2C(N)=O)sc1-c1ccnc(C(C)(C)C(F)(F)F)c1 [Alpelisib] + Cc1cc(Nc2cc(N3CCN(C)CC3)nc(Sc3ccc(NC(=O)C4CC4)cc3)n2)n[nH]1 [Tozasertib] (partner 0.1 µM)
In short: as §1

Vemurafenib + Luminespib = compound: CCCS(=O)(=O)Nc1ccc(F)c(C(=O)c2c[nH]c3ncc(-c4ccc(Cl)cc4)cc23)c1F [Vemurafenib] + CCNC(=O)c1noc(-c2cc(C(C)C)c(O)cc2O)c1-c1ccc(CN2CCOCC2)cc1 [Luminespib] (partner 0.01 µM)
In short: as §1

Cell Line: UMC-11
- relative viability (OSI-027 + Crizotinib; first compound 0.01 µM): 0.499
- relative viability (OSI-027 + Crizotinib; first compound 0.03162 µM): 0.535
- relative viability (OSI-027 + Crizotinib; first compound 0.1 µM): 0.587
- relative viability (OSI-027 + Crizotinib; first compound 0.3162 µM): 0.491
- relative viability (OSI-027 + Crizotinib; first compound 1 µM): 0.378
- relative viability (OSI-027 + Linsitinib; first compound 0.01 µM): 1
- relative viability (OSI-027 + Linsitinib; first compound 0.03162 µM): 1.04
- relative viability (OSI-027 + Linsitinib; first compound 0.1 µM): 0.944
- relative viability (OSI-027 + Linsitinib; first compound 0.3162 µM): 0.676
- relative viability (OSI-027 + Linsitinib; first compound 1 µM): 0.468
- relative viability (Alpelisib + Tozasertib; first compound 0.04 µM): 0.188
- relative viability (Alpelisib + Tozasertib; first compound 0.1265 µM): 0.198
- relative viability (Alpelisib + Tozasertib; first compound 0.4 µM): 0.213
- relative viability (Alpelisib + Tozasertib; first compound 1.265 µM): 0.219
- relative viability (Alpelisib + Tozasertib; first compound 4 µM): 0.186
- relative viability (Vemurafenib + Luminespib; first compound 0.03162 µM): 0.916
- relative viability (Vemurafenib + Luminespib; first compound 0.1 µM): 0.991
- relative viability (Vemurafenib + Luminespib; first compound 0.3162 µM): 0.984
- relative viability (Vemurafenib + Luminespib; first compound 1 µM): 0.941
